Results published in patent publication US7851474B2, “Dipiperazinyl ketones and related analogues” (Neurogen Corporation, priority 2005, dated 2010).

The compounds below were run against T1, chimeric human H3 receptor (Homo sapiens, UniProt Q9Y5N1, E19D) (assay: Chimeric human H3 receptor GTP binding assay (agonist-stimulated GTP-gamma35S binding, Example 7)). Settings: Table II; assay of Example 7; "*" in Ki; read-out: Ki.
T1 construct: made in house; host or cells: Sf9 insect cells (baculovirus infection); P2 membrane preparation
Format: biochemical
Procedure, shortened: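 Sf9 membranes co-expressing the chimeric receptor and heterotrimeric G-protein subunits, 35 μg protein per tube, in pH 7.4 Tris buffer with 10 μM GDP. Test compounds at 10^−10 to 10^−6 M with 1 μM histamine, 60 min at room temperature. Filter-bound GTP-gamma^35S read by scintillation; IC50 from non-linear regression of dose-response curves.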

T1 sequence (Q9Y5N1 with tags, fused parts or gaps E19D): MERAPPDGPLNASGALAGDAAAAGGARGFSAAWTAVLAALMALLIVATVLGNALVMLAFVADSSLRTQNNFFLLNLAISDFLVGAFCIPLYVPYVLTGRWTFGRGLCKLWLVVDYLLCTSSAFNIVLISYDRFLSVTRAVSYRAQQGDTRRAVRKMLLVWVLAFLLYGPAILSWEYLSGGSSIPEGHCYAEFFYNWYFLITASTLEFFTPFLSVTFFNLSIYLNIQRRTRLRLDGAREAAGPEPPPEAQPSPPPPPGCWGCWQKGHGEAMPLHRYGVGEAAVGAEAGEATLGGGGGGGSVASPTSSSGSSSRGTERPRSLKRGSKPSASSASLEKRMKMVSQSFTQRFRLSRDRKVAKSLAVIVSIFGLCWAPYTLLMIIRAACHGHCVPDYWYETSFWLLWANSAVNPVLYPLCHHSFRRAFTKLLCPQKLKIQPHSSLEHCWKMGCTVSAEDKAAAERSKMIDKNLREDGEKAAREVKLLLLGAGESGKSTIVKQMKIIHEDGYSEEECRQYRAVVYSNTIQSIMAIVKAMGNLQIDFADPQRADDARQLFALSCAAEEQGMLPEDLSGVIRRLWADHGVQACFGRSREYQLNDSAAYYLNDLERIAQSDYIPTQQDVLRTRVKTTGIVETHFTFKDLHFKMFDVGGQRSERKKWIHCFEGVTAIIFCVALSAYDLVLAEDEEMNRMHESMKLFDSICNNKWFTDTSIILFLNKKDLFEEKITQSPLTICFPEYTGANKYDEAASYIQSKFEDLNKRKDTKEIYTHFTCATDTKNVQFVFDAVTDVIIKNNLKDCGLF

Ki, < 1000 nM:
COc1ccc2cc(-c3cnc(N4CCN(CC(=O)N5CCN(C6CCC6)CC5)CC4)cn3)ccc2c1 [Compound 941, 2-{4-[2-(4-cyclobutylpiperazin-1-yl)-2-oxoethyl]piperazin-1-yl}-5-(6-methoxy-2-naphthyl)pyrazine]
CC(C)Oc1cccc(-c2cnc(N3CCN(CC(=O)N4CCN(C5CCC5)CC4)CC3)cn2)c1 [Compound 942, 2-{4-[2-(4-cyclobutylpiperazin-1-yl)-2-oxoethyl]piperazin-1-yl}-5-(3-isopropoxyphenyl) pyrazine]
COc1cc(-c2cnc(N3CCN(CC(=O)N4CCN(C5CCC5)CC4)CC3)cn2)cc(OC)c1OC [Compound 943, 2-{4-[2-(4-cyclobutylpiperazin-1-yl)-2-oxoethyl]piperazin-1-yl}-5-(3,4,5-trimethoxyphenyl)pyrazine]
COc1ccc(-c2cnc(N3CCN(CC(=O)N4CCN(C5CCC5)CC4)CC3)cn2)cc1 [Compound 944, 2-{4-[2-(4-cyclobutylpiperazin-1-yl)-2-oxoethyl]piperazin-1-yl}-5-(4-methoxyphenyl)pyrazine]
COc1ccc(-c2cnc(N3CCN(CC(=O)N4CCN(C5CCC5)CC4)CC3)cn2)cc1OC [Compound 945, 2-{4-[2-(4-cyclobutylpiperazin-1-yl)-2-oxoethyl]piperazin-1-yl}-5-(3,4-dimethoxyphenyl) pyrazine]
CCOc1ccc(-c2cnc(N3CCN(CC(=O)N4CCN(C5CCC5)CC4)CC3)cn2)cc1 [Compound 946, 2-{4-[2-(4-cyclobutylpiperazin-1-yl)-2-oxoethyl]piperazin-1-yl}-5-(4-ethoxyphenyi)pyrazine]
O=C(CN1CCN(c2cnc(-c3ccc4c(c3)OCCO4)cn2)CC1)N1CCN(C2CCC2)CC1 [Compound 947, 2-{4-[2-(4-cyclobutylpiperazin-1-yl)-2-oxoethyl]piperazin-1-yl}-5-(2,3-dihydro-1,4-benzodioxin-6-yl)pyrazine]
COc1ccc(-c2cnc(N3CCN(CC(=O)N4CCN(C5CCC5)CC4)CC3)cn2)cc1C [Compound 948, 2-{4-[2-(4-cyclobutylpiperazin-1-yl)-2-oxoethyl]piperazin-1-yl}-5-(4-methoxy-3-methylphenyl)pyrazine]
CCCOc1ccc(-c2cnc(N3CCN(CC(=O)N4CCN(C5CCC5)CC4)CC3)cn2)cc1 [Compound 949, 2-{4-[2-(4-cyclobutylpiperazin-1-yl)-2-oxoethyl]piperazin-1-yl}-5-(4-propoxyphenyl)pyrazine]
COc1ccc(-c2cnc(N3CCN(CC(=O)N4CCN(C5CCC5)CC4)CC3)cn2)c(C)c1 [Compound 950, 2-{4-[2-(4-cyclobutylpiperazin-1-yl)-2-oxoethyl]piperazin-1-yl}-5-(4-methoxy-2-methylphenyl)pyrazine]
COc1ccccc1-c1cnc(N2CCN(CC(=O)N3CCN(C4CCC4)CC3)CC2)cn1 [Compound 951, 2-{4-[2-(4-cyclobutylpiperazin-1-yl)-2-oxoethyl]piperazin-1-yl}-5-(2-methoxyphenyl)pyrazine]
COc1ccc(C(C)C)cc1-c1cnc(N2CCN(CC(=O)N3CCN(C4CCC4)CC3)CC2)cn1 [Compound 952, 2-{4-[2-(4-cyclobutylpiperazin-1-yl)-2-oxoethyl]piperazin-1-yl}-5-(5-isopropyl-2-methoxyphenyl)pyrazine]
COc1ccc(OC)c(-c2cnc(N3CCN(CC(=O)N4CCN(C5CCC5)CC4)CC3)cn2)c1 [Compound 953, 2-{4-[2-(4-cyclobutylpiperazin-1-yl)-2-oxoethyl]piperazin-1-yl}-5-(2,5-dimethoxyphenyl) pyrazine]
COc1ccc(-c2cnc(N3CCN(CC(=O)N4CCN(C5CCC5)CC4)CC3)cn2)c(OC)c1 [Compound 954, 2-{4-[2-(4-cyclobutylpiperazin-1-yl)-2-oxoethyl]piperazin-1-yl}-5-(2,4-dimethoxyphenyl) pyrazine]
CCOc1ccccc1-c1cnc(N2CCN(CC(=O)N3CCN(C4CCC4)CC3)CC2)cn1 [Compound 955, 2-{4-[2-(4-cyclobutylpiperazin-1-yl)-2-oxoethyl]piperazin-1-yl}-5-(2-ethoxyphenyl)pyrazine]
O=C(CN1CCN(c2cnc(-c3cccc4c3oc3ccccc34)cn2)CC1)N1CCN(C2CCC2)CC1 [Compound 956, 2-{4-[2-(4-cyclobutylpiperazin-1-yl)-2-oxoethyl]piperazin-1-yl}-5-dibenzo[b,d]furan-4-ylpyrazine]
COc1ccc(F)cc1-c1cnc(N2CCN(CC(=O)N3CCN(C4CCC4)CC3)CC2)cn1 [Compound 957, 2-{4-[2-(4-cyclobutylpiperazin-1-yl)-2-oxoethyl]piperazin-1-yl}-5-(5-fluoro-2-methoxyphenyl)pyrazine]
COc1ccc(C)cc1-c1cnc(N2CCN(CC(=O)N3CCN(C4CCC4)CC3)CC2)cn1 [Compound 958, 2-{4-[2-(4-cyclobutylpiperazin-1-yl)-2-oxoethyl]piperazin-1-yl}-5-(2-methoxy-5-methylphenyl)pyrazine]
O=C(CN1CCN(c2cnc(-c3ccccc3Oc3ccccc3)cn2)CC1)N1CCN(C2CCC2)CC1 [Compound 959, 2-{4-[2-(4-cyclobutylpiperazin-1-yl)-2-oxoethyl]piperazin-1-yl}-5-(2-phenoxyphenyl)pyrazine]
O=C(CN1CCN(c2cnc(-c3cc(F)ccc3F)cn2)CC1)N1CCN(C2CCC2)CC1 [Compound 960, 2-{4-[2-(4-cyclobutylpiperazin-1-yl)-2-oxoethyl]piperazin-1-yl}-5-(2,5-difluorophenyl)pyrazine]
O=C(CN1CCN(c2cnc(-c3ccc(F)cc3F)cn2)CC1)N1CCN(C2CCC2)CC1 [Compound 961, 2-{4-[2-(4-cyclobutylpiperazin-1-yl)-2-oxoethyl]piperazin-1-yl}-5-(2,4-difluorophenyl)pyrazine]
O=C(CN1CCN(c2cnc(-c3ccc(F)c(F)c3)cn2)CC1)N1CCN(C2CCC2)CC1 [Compound 962, 2-{4-[2-(4-cyclobutylpiperazin-1-yl)-2-oxoethyl]piperazin-1-yl}-5-(3,4-difluorophenyl)pyrazine]
O=C(CN1CCN(c2cnc(-c3cc(Cl)cc(Cl)c3)cn2)CC1)N1CCN(C2CCC2)CC1 [Compound 963, 2-{4-[2-(4-cyclobutylpiperazin-1-yl)-2-oxoethyl]piperazin-1-yl}-5-(3,5-dichlorophenyl)pyrazine]
O=C(CN1CCN(c2cnc(-c3ccc(Cl)c(Cl)c3)cn2)CC1)N1CCN(C2CCC2)CC1 [Compound 964, 2-{4-[2-(4-cyclobutylpiperazin-1-yl)-2-oxoethyl]piperazin-1-yl}-5-(3,4-dichlorophenyl)pyrazine]
O=C(CN1CCN(c2cnc(-c3cc(F)cc(F)c3)cn2)CC1)N1CCN(C2CCC2)CC1 [Compound 965, 2-{4-[2-(4-cyclobutylpiperazin-1-yl)-2-oxoethyl]piperazin-1-yl}-5-(3,5-difluorophenyl)pyrazine]
O=C(CN1CCN(c2cnc(-c3cccc(F)c3F)cn2)CC1)N1CCN(C2CCC2)CC1 [Compound 966, 2-{4-[2-(4-cyclobutylpiperazin-1-yl)-2-oxoethyl]piperazin-1-yl}-5-(2,3-difluorophenyl)pyrazine]
O=C(CN1CCN(c2cnc(-c3cccc(Cl)c3Cl)cn2)CC1)N1CCN(C2CCC2)CC1 [Compound 967, 2-{4-[2-(4-cyclobutylpiperazin-1-yl)-2-oxoethyl]piperazin-1-yl}-5-(2,3-dichlorophenyl)pyrazine]
O=C(CN1CCN(c2cnc(-c3ccc(Cl)cc3Cl)cn2)CC1)N1CCN(C2CCC2)CC1 [Compound 968, 2-{4-[2-(4-cyclobutylpiperazin-1-yl)-2-oxoethyl]piperazin-1-yl}-5-(2,4-dichlorophenyl)pyrazine]
O=C(CN1CCN(c2cnc(-c3ccccc3C(F)(F)F)cn2)CC1)N1CCN(C2CCC2)CC1 [Compound 969, 2-{4-[2-(4-cyclobutylpiperazin-1-yl)-2-oxoethyl]piperazin-1-yl}-5-[2-(trifluoromethyl)phenyl] pyrazine]
COc1cccc(OC)c1-c1cnc(N2CCN(CC(=O)N3CCN(C4CCC4)CC3)CC2)cn1 [Compound 970, 2-{4-[2-(4-cyclobutylpiperazin-1-yl)-2-oxoethyl]piperazin-1-yl}-5-(2,6-dimethoxyphenyl) pyrazine]
CC(C)c1ccccc1-c1cnc(N2CCN(CC(=O)N3CCN(C4CCC4)CC3)CC2)cn1 [Compound 971, 2-{4-[2-(4-cyclobutylpiperazin-1-yl)-2-oxoethyl]piperazin-1-yl}-5-(2-isopropylphenyl)pyrazine]
Cc1cccc(C)c1-c1cnc(N2CCN(CC(=O)N3CCN(C4CCC4)CC3)CC2)cn1 [Compound 972, 2-{4-[2-(4-cyclobutylpiperazin-1-yl)-2-oxoethyl]piperazin-1-yl}-5-(2,6-dimethylphenyl)pyrazine]
O=C(CN1CCN(c2cnc(-c3cc(Cl)ccc3Cl)cn2)CC1)N1CCN(C2CCC2)CC1 [Compound 973, 2-{4-[2-(4-cyclobutylpiperazin-1-yl)-2-oxoethyl]piperazin-1-yl}-5-(2,5-dichlorophenyl)pyrazine]
Cc1cc(C)c(-c2cnc(N3CCN(CC(=O)N4CCN(C5CCC5)CC4)CC3)cn2)c(C)c1 [Compound 974, 2-{4-[2-(4-cyclobutylpiperazin-1-yl)-2-oxoethyl]piperazin-1-yl}-5-mesitylpyrazine]
